Key:
Aphis gossypii [1] = experiment: Synergist ratio, ratio of LC50 for Aphis gossypii clone NM1 (cotton aphid) in presence of S,S,S-tri-n-butyl phosphorotrithioate to LC50 for Aphis gossypii clone NM1; assay type: functional
Aphis gossypii [2] = experiment: Insecticidal activity against Aphis gossypii clone Auber (cotton aphid) in egg plant leaf assessed as mortality after 24 hr by leaf disk assay in presence of S,S,S-tri-n-butyl phosphorotrithioate; assay type: functional
Aphis gossypii [3] = experiment: Insecticidal activity against Aphis gossypii clone Burk (cotton aphid) in egg plant leaf assessed as mortality after 24 hr by leaf disk assay in presence of S,S,S-tri-n-butyl phosphorotrithioate; assay type: functional
Aphis gossypii [4] = assay type: functional
Aphis gossypii [5] = assay type: functional; remark: listed apart in the source
Aphis gossypii [6] = experiment: Synergist ratio, ratio of LC50 for Aphis gossypii clone NM1 (cotton aphid) in presence of piperonyl butoxide to LC50 for Aphis gossypii clone NM1; assay type: functional
Aphis gossypii [7] = experiment: Insecticidal activity against Aphis gossypii clone Ivo (cotton aphid) in cotton plant leaf assessed as mortality after 24 hr by leaf disk assay; assay type: functional
Aphis gossypii [8] = experiment: Insecticidal activity against Aphis gossypii clone NM1 (cotton aphid) in zucchini or squash leaf assessed as mortality after 24 hr by leaf disk assay in presence of S,S,S-tri-n-butyl phosphorotrithioate; assay type: functional
Aphis gossypii [9] = assay type: functional; remark: listed apart in the source
Aphis gossypii [10] = experiment: Synergist ratio, ratio of LC50 for Aphis gossypii clone Burk (cotton aphid) in presence of S,S,S-tri-n-butyl phosphorotrithioate to LC50 for Aphis gossypii clone Burk; assay type: functional
Aphis gossypii [11] = experiment: Insecticidal activity against Aphis gossypii clone Burk (cotton aphid) in cotton plant leaf assessed as mortality after 24 hr by leaf disk assay; assay type: functional
Aphis gossypii [12] = experiment: Insecticidal activity against Aphis gossypii clone Auber (cotton aphid) in egg plant leaf assessed as mortality after 24 hr by leaf disk assay; assay type: functional
Aphis gossypii [13] = assay type: functional, clone C9
Aphis gossypii [14] = assay type: functional; remark: listed apart in the source
Aphis gossypii [15] = experiment: Insecticidal activity against Aphis gossypii clone Burk (cotton aphid) in egg plant leaf assessed as mortality after 24 hr by leaf disk assay in presence of piperonyl butoxide; assay type: functional
Aphis gossypii [16] = experiment: Insecticidal activity against Aphis gossypii clone PsP4 (cotton aphid) in pepper plant leaf assessed as mortality after 24 hr by leaf disk assay; assay type: functional
Aphis gossypii [17] = experiment: Insecticidal activity against Aphis gossypii clone NM1 (cotton aphid) in zucchini or squash leaf assessed as mortality after 24 hr by leaf disk assay in presence of piperonyl butoxide; assay type: functional
Aphis gossypii [18] = experiment: Synergist ratio, ratio of LC50 for Aphis gossypii clone Burk (cotton aphid) in presence of piperonyl butoxide to LC50 for Aphis gossypii clone […]; assay type: functional
Aphis gossypii [19] = assay type: functional; remark: listed apart in the source
Aphis gossypii [20] = assay type: functional, clone NM1
Aphis gossypii [21] = experiment: Insecticidal activity against Aphis gossypii clone Auber (cotton aphid) in egg plant leaf assessed as mortality after 24 hr by leaf disk assay in presence of piperonyl butoxide; assay type: functional
Aphis gossypii [22] = experiment: Synergist ratio, ratio of LC50 for Aphis gossypii clone Auber (cotton aphid) in presence of S,S,S-tri-n-butyl phosphorotrithioate to LC50 for Aphis gossypii clone Auber; assay type: functional
Aphis gossypii [23] = assay type: functional, clone C4
Aphis gossypii [24] = assay type: functional; remark: listed apart in the source
Aphis gossypii [25] = experiment: Synergist ratio, ratio of LC50 for Aphis gossypii clone Auber (cotton aphid) in presence of piperonyl butoxide to LC50 for Aphis gossypii clone Auber; assay type: functional

| SMILES | RatioLC50 (Aphis gossypii [4]) | RatioLC50 (Aphis gossypii [5]) | LC50 (Aphis gossypii [7]) [ugAi/ml] | RatioLC50 (Aphis gossypii [9]) | LC50 (Aphis gossypii [11]) [ugAi/ml] | LC50 (Aphis gossypii [12]) [ugAi/ml] | LC50 (Aphis gossypii [13]) [ugAi/ml] | RatioLC50 (Aphis gossypii [14]) | LC50 (Aphis gossypii [16]) [ugAi/ml] | RatioLC50 (Aphis gossypii [19]) | LC50 (Aphis gossypii [20]) [ugAi/ml] | LC50 (Aphis gossypii [23]) [ugAi/ml] | RatioLC50 (Aphis gossypii [24]) | other results |
| --- | --- | --- | --- | --- | --- | --- | --- | --- | --- | --- | --- | --- | --- | --- |
| CC1(C)C(C=C(Cl)Cl)C1C(=O)OC(C#N)c1cccc(Oc2ccccc2)c1 (stereo not drawn) [ALPHA-CYPERMETHRIN] | 0.5 | 1.4 | 7.1 | 41.2 | 6763.5 | 504 | 7.2 | 0.4 | 19.7 | 0.5 | 10.9 | 6.3 | 473 | RatioLC50 (Aphis gossypii [1]): 1.3; LC50 (Aphis gossypii [2]): 8.5 ugAi/ml; LC50 (Aphis gossypii [3]): 18516 ugAi/ml; RatioLC50 (Aphis gossypii [6]): 0.8; LC50 (Aphis gossypii [8]): 119 ugAi/ml; RatioLC50 (Aphis gossypii [10]): 1.3; LC50 (Aphis gossypii [15]): 207 ugAi/ml; LC50 (Aphis gossypii [17]): 13.2 ugAi/ml; RatioLC50 (Aphis gossypii [18]): 1; LC50 (Aphis gossypii [21]): 23360 ugAi/ml; RatioLC50 (Aphis gossypii [22]): 2.4; RatioLC50 (Aphis gossypii [25]): 4.2 |
| CCCSP(=O)(OCC)Oc1ccc(Br)cc1Cl (centres undefined) [PROFENOFOS] | 0.4 | 6.8 | 4.3 | 5.3 | 50 | 59.6 | 17.2 | 1.3 | 77.1 | 1.5 | 11.3 | 15 | 4.4 | – |
| Clc1ccc(C(c2ccc(Cl)cc2)C(Cl)(Cl)Cl)cc1 [CHLOROPHENOTHANE] | – | – | – | 1.4 | 30738.4 | 291.6 | – | – | – | – | 206.7 | – | 148.7 | – |
| CCCCN(CCCC)SN(C)C(=O)Oc1cccc2c1OC(C)(C)C2 [CARBOSULFAN] | 0.5 | 0.9 | 2.2 | 0.9 | 3.1 | 4 | 5.6 | 1.2 | 4.2 | 1.2 | 4.6 | 5.7 | 0.7 | – |
| C/C(=N\C#N)N(C)Cc1ccc(Cl)nc1 | 1 | 0.6 | 4 | 2 | 6.4 | 7.9 | 4.3 | 0.9 | 2.5 | 1.1 | 3.9 | 3.7 | 1.6 | – |

From ChEMBL document CHEMBL3046950, “Insecticide resistance traits differ among and within host races in Aphis gossypii” (2010)
